According to the METLIN SMRT retention time set (Domingo-Almenara et al. 2019):

Assay: gradient 5% acetonitrile 3 min, to 50% in 2 min, to 85% in 15 min, held 3 min, 100 µL/min
Details: column: Zorbax Extend-C18 2.1 x 50 mm; eluents: water / acetonitrile, 0.1% formic acid
How it was run: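 Each retention time is based on an adduct peak selected computationally and verified by manual inspection. Measurements used HPLC–quadrupole time-of-flight mass spectrometry in positive and negative ionization mode on mixtures of ~100 pure standards. Chromatography ran on a Zorbax Extend-C18 column (2.1 × 50 mm, 1.8 μm) at 100 μL/min with water and acetonitrile, each containing 0.1% formic acid, and dead and dwell volumes of 40 μL and 900 μL.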

SMILES | RP-LC retention time [s]
O=C(Nc1cnc(N2CCCCC2)nc1)c1cccs1 | 842
COc1ccccc1-c1noc(C2CCCN2C(=O)c2ccoc2)n1 (stereo not given) | 763
CNC(=O)c1c(NC(=O)c2ccc(N(C)C)cc2)sc2c1CCC2 | 1030
COc1ccc(N2CCN(c3cc(SCC(=O)Nc4c(C)cc(C)cc4C)ncn3)CC2)cc1 | 983
Cc1ccccc1-n1c(/C=C\c2ccccn2)nc2ccccc2c1=O | 948
COCc1nc(N2CCN(c3ccccc3F)CC2)ncc1C(=O)O | 827
CCOc1ccc2nc(NC(=O)Cn3nc(C(=O)N4CCCC4)c4ccccc43)sc2c1 | 894
COc1ccccc1CCNC(=O)CCCn1cccc1 | 774
COc1ccc2c(=O)c(Oc3ccc(C(=O)NC4CCS(=O)(=O)C4)cc3)coc2c1 (stereo not given) | 687
Cc1ccc(C(=O)N2CC(Cn3c(C)cnc3C3CCOCC3)C2)s1 | 600
CCOC(=O)CCC(=O)NCC1CN(c2ccc(F)cc2)C(=O)O1 (stereo not given) | 666
CCCc1noc(-c2ccc(-n3cnc(C(=O)NC4CCCC4)c3)nc2)n1 | 915
Cc1cn2c(S(=O)(=O)NC3CCCCCC3)c(C(C)C)nc2s1 | 1050
COc1ccc(NC(=O)c2cc(C)n3nccc3n2)cc1Cl | 942
O=S(=O)(c1ccccc1)N1CCN(c2cnn3c(C4CC4)nnc3c2)CC1 | 698
COCCn1ncc(N2CCC(NC(=O)C(C)(C)C)CC2)cc1=O | 607
Cc1ccnc(N2CCC(C(=O)Nc3ccc(Br)cc3F)CC2)n1 | 811
Cc1cccc(Cc2c(C)nc3c(C(=O)O)cnn3c2C)c1 | 788
COc1cc(NC(=O)N2CCN(c3cc(-c4ccccc4)ncn3)CC2)cc(OC)c1 | 649
O=C(Nc1cccn2c(C3CCC3)nnc12)c1ccncc1 | 665
COc1cc(C(=O)N2CCC3(CC2)NC(=O)c2cc(C)ccc2N3C)cc(OC)c1OC | 730
O=C(CN1C(=O)CCc2cc(Br)ccc21)N1CCN(c2ccccc2)CC1 | 913
O=C(CCc1nc2ccccc2n(CC(=O)Nc2cc(F)cc(F)c2)c1=O)NCc1ccccc1 | 890

Continued, values first:

RP-LC retention time [s] | SMILES
559 | c1ccc(OCc2nc3ccccc3n2CC2CCN(Cc3ccccn3)CC2)cc1
826 | O=C(Nc1ccc2c(c1)OCCO2)c1coc2ccccc12
992 | O=S(=O)(c1cccs1)N1CCc2nc(-c3ccccc3)ncc2C1
1400 | Cc1sc(-c2cc(C(F)(F)F)on2)cc1S(=O)(=O)N1CCN(c2ccc(Cl)cc2)CC1
1030 | COC(=O)c1cccc(NC(=O)NC(C(=O)N2CCc3ccccc32)c2ccccc2)c1 (stereo not given)
1010 | COc1cc(OC)cc(-c2nc(C3CC(=O)N(c4ccc(C)cc4)C3)no2)c1 (stereo not given)
883 | CSc1cccc(NC(=O)N2CCc3c(c(-c4nc(C5CC5)no4)nn3C)C2)c1
669 | CN(C1=NC(=O)/C(=C/c2cc(Cl)ccc2OCC(=O)O)S1)c1ccc(O)cc1
732 | COC(=O)c1cnc2nc(C)ccc2c1Nc1ccc(Br)cc1C
572 | COc1cccc(CN2CCC3(CC2)CC(O)CCO3)n1 (stereo not given)
1320 | COc1ccc(-c2ccnn2-c2ccc(SCc3ccccc3)nn2)cc1
758 | O=c1ccc(-c2ccc(F)cc2)nn1CCc1nc(-c2ccncc2)no1
702 | CN(C)c1ccc(C(=O)Nc2cnc(N3CCCC3)nc2)cc1
801 | COc1ccc(NC(=O)N(C)CCc2noc(COc3ccc(F)cc3)n2)cc1OC
942 | CCn1c(=O)c(C)nc2cc(-c3noc(-c4ccc(OC)cc4)n3)ccc21
617 | CCCN(CCC)CC(=O)N1CC(=O)Nc2ccccc21
707 | O=C(NCc1nnnn1-c1ccc(F)c(F)c1)c1cc(=O)c2ccccc2o1
672 | COc1ccc(-c2nccn3cc(C(=O)O)nc23)cc1
839 | CS(=O)(=O)N1CCC(C(=O)NCc2ccco2)Oc2ccc(Cl)cc21 (stereo not given)
873 | c1cncc(-c2nc3ccccc3s2)c1
704 | COc1ccc(-c2cc(C(=O)N3CCOCC3)nn2C2CCS(=O)(=O)C2)cc1 (stereo not given)
843 | CCCN(CC1CCOC1)C(=O)Nc1ccc(Cl)cc1 (stereo not given)
